In US11130756B2, “[1,2,4]Triazolo[4,3-A]pyridinyl substituted indole compounds” (BRISTOL-MYERS SQUIBB COMPANY, priority 2017, dated 2021):
pIC50: −log10 of the molar value.

How the values were obtained:
Format in all cases: cell-based
[1] = biological target: T1, human TLR7 (Homo sapiens, UniProt Q9NYK1); assay: TLR7 inhibition reporter assay (HEK-Blue, SEAP); details: HEK-Blue cells overexpressing human TLR7, gardiquimod 7.5 μM, 22 hour incubation
T1 construct: host or cells: HEK-Blue cells
T1 sequence (Q9NYK1 27-1049): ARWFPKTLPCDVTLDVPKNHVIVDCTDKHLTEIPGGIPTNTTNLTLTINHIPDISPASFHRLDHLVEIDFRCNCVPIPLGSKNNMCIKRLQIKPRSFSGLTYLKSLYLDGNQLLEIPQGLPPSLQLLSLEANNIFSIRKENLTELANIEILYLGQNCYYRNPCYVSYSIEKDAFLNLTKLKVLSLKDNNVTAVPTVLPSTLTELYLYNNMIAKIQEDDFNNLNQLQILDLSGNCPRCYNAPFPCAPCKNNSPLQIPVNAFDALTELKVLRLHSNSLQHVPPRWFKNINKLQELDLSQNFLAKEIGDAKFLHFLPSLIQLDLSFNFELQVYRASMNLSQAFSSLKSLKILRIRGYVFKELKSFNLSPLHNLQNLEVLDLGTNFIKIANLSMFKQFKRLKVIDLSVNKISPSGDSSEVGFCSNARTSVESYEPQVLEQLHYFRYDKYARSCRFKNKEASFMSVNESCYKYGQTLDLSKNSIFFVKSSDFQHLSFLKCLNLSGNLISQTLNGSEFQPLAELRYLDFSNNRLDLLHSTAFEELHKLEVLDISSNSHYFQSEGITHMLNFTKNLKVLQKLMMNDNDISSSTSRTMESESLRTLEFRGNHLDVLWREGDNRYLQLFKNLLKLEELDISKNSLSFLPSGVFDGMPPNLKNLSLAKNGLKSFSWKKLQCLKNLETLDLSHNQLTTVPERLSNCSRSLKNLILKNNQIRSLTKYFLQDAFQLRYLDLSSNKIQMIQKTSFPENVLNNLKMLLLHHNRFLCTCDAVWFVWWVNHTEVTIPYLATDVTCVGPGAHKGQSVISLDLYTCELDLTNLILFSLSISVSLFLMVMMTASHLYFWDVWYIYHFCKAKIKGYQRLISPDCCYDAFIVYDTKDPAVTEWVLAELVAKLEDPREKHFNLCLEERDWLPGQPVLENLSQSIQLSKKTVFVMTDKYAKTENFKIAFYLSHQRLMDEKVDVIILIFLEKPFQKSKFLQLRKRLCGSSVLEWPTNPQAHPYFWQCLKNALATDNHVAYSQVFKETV
In short: (§1)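 Compound treatment: 30 min, RT, 0.05 nM–50 μM final. Agonist: TLR7 gardiquimod 7.5 μM; TLR8 R848 15.9 μM; TLR9 ODN2006 5 nM. Incubation 22 h, 37 °C, 5% CO2. Readout SEAP, HEK-Blue Detection.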

[2] = biological target: T2, human TLR8 (Homo sapiens, UniProt Q9NR97); assay: TLR8 inhibition reporter assay (HEK-Blue, SEAP); details: HEK-Blue cells overexpressing human TLR8, R848 15.9 μM, 22 hour incubation
T2 construct: host or cells: HEK-Blue cells
T2 sequence (Q9NR97 27-1041): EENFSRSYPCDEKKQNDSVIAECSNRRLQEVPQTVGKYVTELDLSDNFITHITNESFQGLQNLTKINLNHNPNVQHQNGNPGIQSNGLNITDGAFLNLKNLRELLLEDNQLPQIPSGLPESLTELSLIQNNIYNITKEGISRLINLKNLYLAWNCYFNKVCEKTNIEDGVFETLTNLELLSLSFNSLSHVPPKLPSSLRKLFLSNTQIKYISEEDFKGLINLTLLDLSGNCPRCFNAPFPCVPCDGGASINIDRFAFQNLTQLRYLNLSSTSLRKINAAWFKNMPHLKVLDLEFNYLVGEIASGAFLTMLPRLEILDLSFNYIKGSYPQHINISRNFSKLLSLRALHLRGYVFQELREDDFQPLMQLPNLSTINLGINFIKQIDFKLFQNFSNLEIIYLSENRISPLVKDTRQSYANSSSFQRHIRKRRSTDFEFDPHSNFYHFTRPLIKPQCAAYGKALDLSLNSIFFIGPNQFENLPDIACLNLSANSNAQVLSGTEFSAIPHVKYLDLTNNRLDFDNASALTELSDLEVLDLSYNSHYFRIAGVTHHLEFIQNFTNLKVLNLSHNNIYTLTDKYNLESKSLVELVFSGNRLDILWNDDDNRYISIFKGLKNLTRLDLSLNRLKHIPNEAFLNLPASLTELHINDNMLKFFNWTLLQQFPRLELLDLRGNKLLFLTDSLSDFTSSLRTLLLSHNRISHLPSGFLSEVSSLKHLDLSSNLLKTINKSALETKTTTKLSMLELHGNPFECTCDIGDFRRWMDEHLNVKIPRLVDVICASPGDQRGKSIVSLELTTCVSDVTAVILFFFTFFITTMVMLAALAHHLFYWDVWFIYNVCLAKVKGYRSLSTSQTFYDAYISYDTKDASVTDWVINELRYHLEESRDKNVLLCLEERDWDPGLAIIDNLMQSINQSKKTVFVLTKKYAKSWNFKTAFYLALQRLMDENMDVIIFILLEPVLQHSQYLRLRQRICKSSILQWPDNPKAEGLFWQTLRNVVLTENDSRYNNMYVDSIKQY
In short: as §1

[3] = biological target: T3, human TLR9 (Homo sapiens, UniProt Q9NR96); assay: TLR9 inhibition reporter assay (HEK-Blue, SEAP); details: HEK-Blue cells overexpressing human TLR9, ODN2006 5 nM, 22 hour incubation
T3 construct: host or cells: HEK-Blue cells
T3 sequence (Q9NR96 26-1032): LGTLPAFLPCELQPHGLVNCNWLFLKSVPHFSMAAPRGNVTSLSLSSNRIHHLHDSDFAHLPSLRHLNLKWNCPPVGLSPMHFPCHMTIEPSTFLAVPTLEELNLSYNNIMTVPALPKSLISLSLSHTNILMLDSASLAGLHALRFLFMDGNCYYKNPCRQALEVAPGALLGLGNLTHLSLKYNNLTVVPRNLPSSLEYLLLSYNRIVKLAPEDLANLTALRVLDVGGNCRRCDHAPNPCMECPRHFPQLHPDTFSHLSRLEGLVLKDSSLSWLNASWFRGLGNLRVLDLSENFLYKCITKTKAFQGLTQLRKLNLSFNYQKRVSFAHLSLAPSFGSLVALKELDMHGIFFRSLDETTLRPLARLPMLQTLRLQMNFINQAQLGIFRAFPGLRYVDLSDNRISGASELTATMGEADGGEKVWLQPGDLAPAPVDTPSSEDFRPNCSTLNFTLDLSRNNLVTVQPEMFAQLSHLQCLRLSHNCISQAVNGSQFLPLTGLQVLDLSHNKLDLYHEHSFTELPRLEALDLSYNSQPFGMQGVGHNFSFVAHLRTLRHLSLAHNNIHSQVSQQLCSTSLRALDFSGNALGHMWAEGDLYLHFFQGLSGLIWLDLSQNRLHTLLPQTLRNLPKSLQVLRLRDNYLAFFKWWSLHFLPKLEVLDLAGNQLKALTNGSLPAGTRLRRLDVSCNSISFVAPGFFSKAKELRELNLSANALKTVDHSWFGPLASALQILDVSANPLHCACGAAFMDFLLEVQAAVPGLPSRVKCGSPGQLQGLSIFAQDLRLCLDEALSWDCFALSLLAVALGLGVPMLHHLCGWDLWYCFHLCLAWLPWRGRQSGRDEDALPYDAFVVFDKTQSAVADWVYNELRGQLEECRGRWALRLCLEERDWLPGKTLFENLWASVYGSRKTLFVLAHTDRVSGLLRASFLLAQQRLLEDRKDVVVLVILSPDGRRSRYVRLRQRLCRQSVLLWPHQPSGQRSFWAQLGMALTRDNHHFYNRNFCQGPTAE
In short: as §1

pIC50 [1]	pIC50 [2]	pIC50 [3]	Structure (SMILES)
7.39	6.23	6.04	Cc1cc2nncn2cc1-c1[nH]c2ccc(C3CCN(C(=O)CN(C)C)CC3)cc2c1C(C)C [Example 107, 2-(dimethylamino)-1-(4-(3-isopropyl-2-(7-methyl-[1,2,4]triazolo[4,3-a]pyridin-6-yl)-1H-indol-5-yl)piperidin-1-yl)ethan-1-one]
7.10	7.52	6.67	Cc1c(-c2[nH]c3ccc(C4CCN(C(=O)CN(C)C)CC4)cc3c2C(C)C)ccc2nncn12 [Example 108, 2-(dimethylamino)-1-(4-(3-isopropyl-2-(5-methyl-[1,2,4]triazolo[4,3-a]pyridin-6-yl)-1H-indol-5-yl)piperidin-1-yl)ethan-1-one]
7.69	6.92	5.13	Cc1c(-c2[nH]c3ccc(C4CC(C)N(CC(=O)N(C)C)C(C)C4)cc3c2C(C)C)cn2cnnc2c1C (stereo not drawn) [Example 112, 2-(4-(2-(7,8-dimethyl-[1,2,4]triazolo[4,3-a]pyridin-6-yl)-3-isopropyl-1H-indol-5-yl)-2,6-dimethylpiperidin-1-yl)-N,N-dimethylacetamide]
8.25	7.53	4.84	Cc1c(-c2[nH]c3ccc(C4CC(C)N(C5COC5)C(C)C4)cc3c2C(C)C)cn2cnnc2c1C (stereo not drawn) [Example 115, 6-(5-(2,6-dimethyl-1-(oxetan-3-yl)piperidin-4-yl)-3-isopropyl-1H-indol-2-yl)-7,8-dimethyl-[1,2,4]triazolo[4,3-a]pyridine]
